From PubChem BioAssay (NCI)
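Tested at 5 concentrations; 48 h exposure; 96-well plates; endpoints linearly interpolated, else capped at highest concentration. TGI: concentration producing complete growth inhibition.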

How the values were obtained:
Experiment in all cases: NCI anticancer screen, dose series, 48 h
[1] = tested on: HCT-116 colon
[2] = tested on: SK-MEL-28 melanoma
[3] = tested on: OVCAR-5 ovarian
[4] = tested on: RXF 393 renal
[5] = tested on: RPMI-8226 leukemia
[6] = tested on: UO-31 renal
[7] = tested on: XF 498 CNS
[8] = tested on: 786-0 renal
[9] = tested on: SF-539 CNS
[10] = tested on: LOX IMVI melanoma
[11] = tested on: COLO 205 colon
[12] = tested on: NCI-H522 lung
[13] = tested on: ACHN renal
[14] = tested on: SK-MEL-5 melanoma
[15] = tested on: UACC-62 melanoma
[16] = tested on: EKVX NSCLC
[17] = tested on: SW-620 colon
[18] = tested on: M19-MEL melanoma
[19] = tested on: TK-10 renal
[20] = tested on: SK-MEL-2 melanoma
[21] = tested on: NCI-H226 lung
[22] = tested on: NCI-H23 lung
[23] = tested on: M14 melanoma
[24] = tested on: OVCAR-8 ovarian
[25] = tested on: SN12C renal
[26] = tested on: MALME-3M melanoma
[27] = tested on: DMS 273 small cell lung
[28] = tested on: SNB-19 CNS
[29] = tested on: U251 CNS
[30] = tested on: OVCAR-3 ovarian
[31] = tested on: HT29 colon
[32] = tested on: KM20L2 colon
[33] = tested on: SF-268 CNS
[34] = tested on: SF-295 CNS
[35] = tested on: KM12 colon
[36] = tested on: SNB-78 CNS
[37] = tested on: HCT-15 colon
[38] = tested on: OVCAR-4 ovarian
[39] = tested on: NCI-H460 lung
[40] = tested on: DMS 114 small cell lung
[41] = tested on: K-562 leukemia
[42] = tested on: HOP-62 NSCLC
[43] = tested on: IGROV1 ovarian
[44] = tested on: SNB-75 CNS
[45] = tested on: LXFL 529 NSCLC
[46] = tested on: MOLT-4 leukemia
[47] = tested on: A549 NSCLC
[48] = tested on: SK-OV-3 ovarian
[49] = tested on: CCRF-CEM leukemia
[50] = tested on: DLD-1 colon
[51] = tested on: HOP-92 NSCLC
[52] = tested on: CAKI-1 renal
[53] = tested on: HCC-2998 colon
[54] = tested on: SR leukemia
[55] = tested on: HL-60(TB) leukemia
[56] = tested on: UACC-257 melanoma
[57] = tested on: A498 renal

Measured: TGI

COC(=O)[C@]12CSCN1C(=O)C(C(C)=O)=NN2C(=O)[C@](OC)(c1ccccc1)C(F)(F)F
not listed: [48] | [49] | [50] | [51] | [52] | [53] | [54] | [55] | [56] | [57]
> 100 µM: all other assays above

CC(=O)c1c(P(=O)(OC(C)C)OC(C)C)nn(-c2ccc([N+](=O)[O-])cc2)c1C
not listed: [4] | [8] | [10] | [21] | [44]
> 100 µM: all other assays above

O=C(CCN1CCCC1)CC(c1ccccc1)c1c(O)c2ccccc2oc1=O (configuration not stated)
94.8 µM: [51]
not listed: [3] | [9] | [52] | [57]
> 100 µM: all other assays above
